# Columns and labels:
# Assay type in all cases: cell-based
# [1] = biological target: T1, human muscarinic M1 receptor (Homo sapiens, UniProt P11229); experiment: Alphascreen Surefire phospho-ERK1/2 functional assay, M1; conditions: for EC50: pEC50 M1, CHO cells stably expressing human M1, phospho-ERK1/2; for % Emax cf. ACh, M1: CHO cells stably expressing human M1
# T1 sequence (P11229 1-460): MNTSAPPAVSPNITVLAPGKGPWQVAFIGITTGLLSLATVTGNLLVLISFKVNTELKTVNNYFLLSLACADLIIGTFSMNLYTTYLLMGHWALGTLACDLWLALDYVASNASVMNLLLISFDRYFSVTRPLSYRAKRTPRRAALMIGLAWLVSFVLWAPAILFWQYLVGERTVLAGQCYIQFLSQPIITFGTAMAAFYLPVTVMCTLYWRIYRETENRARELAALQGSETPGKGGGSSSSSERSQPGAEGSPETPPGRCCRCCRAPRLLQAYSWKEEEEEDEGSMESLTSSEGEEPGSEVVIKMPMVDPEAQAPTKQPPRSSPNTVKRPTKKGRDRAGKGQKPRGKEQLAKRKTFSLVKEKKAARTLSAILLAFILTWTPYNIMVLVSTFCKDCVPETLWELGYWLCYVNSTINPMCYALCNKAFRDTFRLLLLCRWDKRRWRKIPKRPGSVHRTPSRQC
# Protocol: (§1) Functional assays were performed using the Alphascreen Surefire phospho-ERK1/2 assay (Crouch & Osmond, Comb. Chem. High Throughput Screen, 2008). ERK1/2 phosphorylation is a downstream consequence of both Gq/11 and Gi/o protein coupled receptor activation, making it highly suitable for the assessment of M1, M3 (Gq/11 coupled) and M2, M4 receptors (Gi/o coupled), rather than using different assay formats for different receptor subtypes. CHO cells stably expressing the human muscarinic M1, M2, M3 or M4 receptor were plated (25K/well) onto 96-well tissue culture plates in MEM-alpha+10% dialysed FBS. Once adhered, cells were serum-starved overnight. Agonist stimulation was performed by the addition of 5 μL agonist to the cells for 5 min (37° C.). Media was removed and 50 μL of lysis buffer added. After 15 min, a 4 μL sample was transferred to 384-well plate and 7 μL of detection mixture added.
# For the vast majority of examples at least two diastereomers exist and these have been separated, unless otherwise stated, using the techniques of reversed phase HPLC, chiral HPLC or chiral SFC. Isomer assignment (Isomer 1, Isomer 2, etc.) is based on the retention time of the compound using the separation technique that was performed in the final purification step. By implication, this could be reversed phase HPLC, chiral HPLC or chiral SFC retention time, and this will vary from compound to compound.
# [2] = biological target: T2, human muscarinic M4 receptor (Homo sapiens, UniProt P08173); experiment: Alphascreen Surefire phospho-ERK1/2 functional assay, M4; conditions: for Emax: CHO, read-out: % Emax cf. ACh, M4, CHO cells stably expressing human M4; for Emax / % Emax cf. ACh, M4: Emax relative to ACh; for EC50: pEC50 M4, CHO cells stably expressing human M4, phospho-ERK1/2; for % Emax cf. ACh, M4: CHO cells stably expressing human M4
# T2 sequence (P08173 1-479): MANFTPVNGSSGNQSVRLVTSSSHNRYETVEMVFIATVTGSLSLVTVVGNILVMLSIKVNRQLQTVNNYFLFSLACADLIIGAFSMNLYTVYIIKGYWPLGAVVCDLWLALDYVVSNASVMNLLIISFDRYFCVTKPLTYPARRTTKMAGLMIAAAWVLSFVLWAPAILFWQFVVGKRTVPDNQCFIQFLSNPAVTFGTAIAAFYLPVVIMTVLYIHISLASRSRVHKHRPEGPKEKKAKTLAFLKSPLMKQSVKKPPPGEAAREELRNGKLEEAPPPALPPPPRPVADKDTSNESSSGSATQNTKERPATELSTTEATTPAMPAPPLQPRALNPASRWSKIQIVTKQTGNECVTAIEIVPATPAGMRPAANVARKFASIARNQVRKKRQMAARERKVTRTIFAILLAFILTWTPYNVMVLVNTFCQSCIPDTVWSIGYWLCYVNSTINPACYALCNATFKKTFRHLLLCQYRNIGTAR
# Protocol: as §1, with “ERK1/2” for “Functional assays were performed using the Alphascreen Surefire phospho-ERK1/2 assay (Crouch & Osmond, Comb. Chem. High Throughput Screen, 2008). ERK1/2”
# (§2) Isomer assignment (Isomer 1, Isomer 2, etc.) is based on the retention time of the compound using the separation technique that was performed in the final purification step. By implication, this could be reversed phase HPLC, chiral HPLC or chiral SFC retention time, and this will vary from compound to compound.
# [3] = biological target: T3, human muscarinic M2 receptor (Homo sapiens, UniProt P08172); experiment: Alphascreen Surefire phospho-ERK1/2 functional assay, M2; conditions: for EC50: pEC50 M2, CHO cells stably expressing human M2, phospho-ERK1/2; for % Emax cf. ACh, M2: CHO cells stably expressing human M2
# T3 sequence (P08172 1-466): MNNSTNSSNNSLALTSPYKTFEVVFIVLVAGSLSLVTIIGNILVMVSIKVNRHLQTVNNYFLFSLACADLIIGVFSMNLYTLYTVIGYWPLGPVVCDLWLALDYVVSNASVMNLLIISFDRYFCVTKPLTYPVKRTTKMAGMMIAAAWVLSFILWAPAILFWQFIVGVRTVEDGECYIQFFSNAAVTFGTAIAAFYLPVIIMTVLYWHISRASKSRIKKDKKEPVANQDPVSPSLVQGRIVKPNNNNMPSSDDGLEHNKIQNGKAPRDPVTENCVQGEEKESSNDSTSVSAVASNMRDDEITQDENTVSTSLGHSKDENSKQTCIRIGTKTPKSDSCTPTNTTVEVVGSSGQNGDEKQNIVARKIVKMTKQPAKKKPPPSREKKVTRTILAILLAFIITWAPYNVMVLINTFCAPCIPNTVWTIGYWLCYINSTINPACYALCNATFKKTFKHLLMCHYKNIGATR
# Protocol: as §1, with “ERK1/2” for “Functional assays were performed using the Alphascreen Surefire phospho-ERK1/2 assay (Crouch & Osmond, Comb. Chem. High Throughput Screen, 2008). ERK1/2”
# as §2
# [4] = biological target: T4, human muscarinic M3 receptor (Homo sapiens, UniProt P20309); experiment: Alphascreen Surefire phospho-ERK1/2 functional assay, M3; conditions: for Emax: CHO, read-out: % Emax cf. ACh, M3, CHO cells stably expressing human M3; for Emax / % Emax cf. ACh, M3: Emax relative to ACh; for EC50: pEC50 M3, CHO cells stably expressing human M3, phospho-ERK1/2; for % Emax cf. ACh, M3: CHO cells stably expressing human M3
# T4 construct: expressed in transfected cells
# Protocol: as §1, with “ERK1/2” for “Functional assays were performed using the Alphascreen Surefire phospho-ERK1/2 assay (Crouch & Osmond, Comb. Chem. High Throughput Screen, 2008). ERK1/2”
# as §2
# [5] = Emax relative to ACh, listed as 1-2 Isomer 1
# [6] = Emax relative to ACh, listed as 1-2 Isomer 2
# [7] = Emax relative to ACh, listed as 1-3 Isomer 1
# [8] = Emax relative to ACh, listed as 5-5 Isomer 2
# [9] = Emax relative to ACh, listed as 6-4 Isomer 1
# T4 sequence (P20309 whole entry): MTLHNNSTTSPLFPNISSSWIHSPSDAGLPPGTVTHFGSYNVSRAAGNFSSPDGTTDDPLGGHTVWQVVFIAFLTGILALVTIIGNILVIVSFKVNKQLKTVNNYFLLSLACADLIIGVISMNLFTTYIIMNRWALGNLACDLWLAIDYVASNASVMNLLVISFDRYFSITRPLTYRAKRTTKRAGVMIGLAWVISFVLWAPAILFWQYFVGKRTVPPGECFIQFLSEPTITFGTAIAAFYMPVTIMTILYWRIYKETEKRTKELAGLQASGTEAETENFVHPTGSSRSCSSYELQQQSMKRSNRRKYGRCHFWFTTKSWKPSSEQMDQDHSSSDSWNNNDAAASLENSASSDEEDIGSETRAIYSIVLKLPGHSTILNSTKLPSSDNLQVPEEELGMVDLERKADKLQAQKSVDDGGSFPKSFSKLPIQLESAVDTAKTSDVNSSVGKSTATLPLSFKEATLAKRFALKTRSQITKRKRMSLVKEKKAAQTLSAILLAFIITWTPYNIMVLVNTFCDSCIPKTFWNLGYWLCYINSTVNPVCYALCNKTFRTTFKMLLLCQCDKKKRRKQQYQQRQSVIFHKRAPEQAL
smiles,measurement,setting,value
"CCOC(=O)N1C2COCC1CC(N1CCC(n3cccn3)CC1)C2 (single isomer, unassigned) [Example 1-1 Isomer 1, Ethyl 7-[4-(1H-pyrazol-1-yl)piperidin-1-yl]-3-oxa-9-azabicyclo[3.3.1]nonane-9-carboxylate]",Emax,"[1]; CHO, read-out: % Emax cf. ACh, M1, CHO cells stably expressing human M1, Emax relative to ACh",116%
same,EC50,[1],427 nM
same,Emax,[2],100%
same,EC50,[2],52.5 nM
same,Emax,"[3]; CHO, read-out: % Emax cf. ACh, M2, CHO cells stably expressing human M2, Emax relative to ACh",57%
same,EC50,[3],575 nM
same,Emax,[4],13%
same,EC50,[4],> 20000 nM
"CCOC(=O)N1C2COCC1CC(N1CCC(n3cc(Cl)cn3)CC1)C2 (single isomer, unassigned) [Example 1-2 Isomer 1, Ethyl 7-[4-(4-chloro-1H-pyrazol-1-yl)piperidin-1-yl]-3-oxa-9-azabicyclo[3.3.1]nonane-9-carboxylate]","% Emax cf. ACh, M1",[1]; [5],96%
same,EC50,[1],15.1 nM
same,"% Emax cf. ACh, M4",[2]; listed as 1-2 Isomer 1,78%
same,EC50,[2],2.88 nM
same,"% Emax cf. ACh, M2",[3]; [5],69%
same,EC50,[3],87.1 nM
same,"% Emax cf. ACh, M3",[4],2%
"CCOC(=O)N1C2COCC1CC(N1CCC(n3cc(Cl)cn3)CC1)C2 (single isomer, unassigned) [Example 1-2 Isomer 2, Ethyl 7-[4-(4-chloro-1H-pyrazol-1-yl)piperidin-1-yl]-3-oxa-9-azabicyclo[3.3.1]nonane-9-carboxylate]","% Emax cf. ACh, M1",[1]; [6],67%
same,EC50,[1],77.6 nM
same,"% Emax cf. ACh, M4",[2]; listed as 1-2 Isomer 2,51%
same,EC50,[2],13.2 nM
same,"% Emax cf. ACh, M2",[3]; [6],10%
same,EC50,[3],> 20000 nM
same,Emax,[4],2%
same,EC50,[4],> 20000 nM
"CCOC(=O)N1C2COCC1CC(N1CCC(n3cc(C)cn3)CC1)C2 (single isomer, unassigned) [Example 1-3 Isomer 1, Ethyl 7-[4-(4-methyl-1H-pyrazol-1-yl)piperidin-1-yl]-3-oxa-9-azabicyclo[3.3.1]nonane-9-carboxylate]","% Emax cf. ACh, M1",[1]; [7],124%
same,EC50,[1],55 nM
same,Emax,[2],99%
same,EC50,[2],7.24 nM
same,"% Emax cf. ACh, M2",[3]; [7],112%
same,EC50,[3],282 nM
same,"% Emax cf. ACh, M3",[4]; listed as 1-3 Isomer 1,40%
same,EC50,[4],2510 nM
"CCOC(=O)N1C2COCC1CC(N1CCC3(CC1)C(=O)Nc1ccccc13)C2 (single isomer, unassigned) [Example 5-5 Isomer 2, Ethyl 7-(2-oxo-1,2-dihydro-1′H-spiro[indole-3,4′-piperidin]-1′yl)-3-oxa-9-azabicyclo[3.3.1]nonane-9-carboxylate]","% Emax cf. ACh, M1",[1]; [8],108%
same,EC50,[1],53.7 nM
same,"% Emax cf. ACh, M4",[2],108%
same,EC50,[2],8.51 nM
same,"% Emax cf. ACh, M2",[3]; [8],67%
same,EC50,[3],75.9 nM
"CCOC(=O)N1C2COCC1CC(N1CCC(N(CC3(C)CCC3)C(C)=O)CC1)C2 (single isomer, unassigned) [Example 6-4 Isomer 1]","% Emax cf. ACh, M1",[1]; [9],103%
same,EC50,[1],14.5 nM
same,"% Emax cf. ACh, M4",[2]; listed as 6-4 Isomer 1,80%
same,EC50,[2],42.7 nM
same,"% Emax cf. ACh, M2",[3]; [9],33%
same,EC50,[3],363 nM
"COC(=O)N1C2COCC1CC(N1CCC(N(CC3(C)CCC3)C(C)=O)CC1)C2 (single isomer, unassigned) [Example 8-1 Isomer 2, Methyl 7-(4-(N-((1-methylcyclobutyl)methyl)acetamido)piperidin-1-yl)-3-oxa-9-azabicyclo[3.3.1]nonane-9-carboxylate]","% Emax cf. ACh, M1","[1]; Emax relative to ACh, listed as 8-1 Isomer 2",86%
same,EC50,[1],234 nM
same,"% Emax cf. ACh, M4",[2]; listed as 8-1 Isomer 2,47%
same,EC50,[2],575 nM
"COC(=O)N1C2COCC1CC(N1CCC(N(Cc3ccccc3)C(C)=O)CC1)C2 (single isomer, unassigned) [Example 8-2 Isomer 1, Methyl 7-(4-(N-benzylacetamido)piperidin-1-yl)-3-oxa-9-azabicyclo[3.3.1]nonane-9-carboxylate]","% Emax cf. ACh, M1","[1]; Emax relative to ACh, listed as 8-2 Isomer 1",99%
same,EC50,[1],79.4 nM
same,"% Emax cf. ACh, M4",[2]; listed as 8-2 Isomer 1,54%
same,EC50,[2],661 nM
"COC(=O)N1C2COCC1CC(N1CCC(N(Cc3ccccc3)C(C)=O)CC1)C2 (single isomer, unassigned) [Example 8-2 Isomer 2, Methyl 7-(4-(N-benzylacetamido)piperidin-1-yl)-3-oxa-9-azabicyclo[3.3.1]nonane-9-carboxylate]","% Emax cf. ACh, M1","[1]; Emax relative to ACh, listed as 8-2 Isomer 2",60%
same,EC50,[1],603 nM
same,"% Emax cf. ACh, M4",[2]; listed as 8-2 Isomer 2,27%
same,EC50,[2],> 20000 nM
CC(=O)OCC[N+](C)(C)C [ACh],"% Emax cf. ACh, M4",[2],110%
same,"% Emax cf. ACh, M3",[4],115%
